According to patent US8148371B2, “Adenine compound and use thereof” (Dainippon Sumitomo Pharma Co., Ltd., priority 2002, dated 2012):

Key:
[1] = system: cells of rat spleen; test: cells; type: cell-based, SD rat; conditions: for minimal effective concentration: 24 h, read-out: Minimum effective concentration (interferon inducing activity)
[2] = Metabolic stability on liver S9 of rat; conditions: rat liver S9, test compound 1 μM, 37° C.
Method: The compound of the present invention is added to liver S9 solution, and the mixture is incubated at 37±0.5° C. for 5 minutes to 2 hours. By quantitatively analyzing at the definite interval the amount of the compound of the present invention remaining in the liver S9 solution with HPLC (high performance liquid chromatography), etc., the constant of quenching velocity is calculated and the half life is calculated.
The reaction on river S9 of a rat was carried out on a 96-well plate by using a robot for screening by Tecan Company. S9 solution was prepared by adding to 10 ml of liver S9 of a rat, 20 ml of 250 mM Kpi (pH 7.4) and 20 ml of deionized water. Cofactor solution was prepared by dissolving NADPH (220 mg) in deionized water (40.5 ml) to give finally a 6 mM solution. IS (Internal Standard) solution was prepared by adding 300 μL of IS solution (1 mM DMSO solution) to 30 ml of acetonitrile solution (100 times dilution). The test compound (1 μM DMSO solution) was dissolved in an incubator at 37° C., 35 μL of it was poured into each well of a 96-well plate (24 samples/plate and then, plates (a sample plate, a 96 well-plate for dilution, deep well plates for reaction and recovering, a plate for extraction of the solid phase) and the test samples (S9 solution, Cofactor solution, IS (Internal Standard) solution, Stop solution, acetonitrile for elution) were set to the specified position in the booth of the robot. The reaction started (the concentration of the test compound was 1 μM) and the mixture was incubated at 37° C. under stirring. The solid phase was extracted and at the same time the internal standard for analysis was added. To the recovered sample (200 μL/well) was added 50 μL of acetonitrile per each well and to 2 plates of FALCON Deep well were poured 100 μL of the solution per well. By subjecting to the LC/MS analysis, the chromatogram of the test sample and the internal standard were described and the peak area was calculated. And then, the stability (residual rate after reaction) was calculated by the internal standard method.

| Structure (SMILES) | minimal effective concentration [1] [µM] | Residual rate [2] [%] | Minimum effective concentration (interferon inducing activity) [1] [nM] |
| --- | --- | --- | --- |
| CCCCOc1nc(N)c2nc(O)n(Cc3ccc(N4CCC(C(=O)OC)CC4)nc3)c2n1 [Example 87, 2-Butoxy-8-hydroxy-9-{6-(4-methoxycarbonyl-1-piperidyl)-3-pyridylmethyl}adenine] | 0.001 |  |  |
| CCCCOc1nc(N)c2nc(O)n(Cc3ccc(CC(=O)OC)o3)c2n1 [Example 81, 2-Butoxy-8-hydroxy-9-(5-methoxycarbonylmethylfurfuryl)adenine] | 0.001 | 2 |  |
| CCCCOc1nc(N)c2nc(O)n(Cc3ccc(OCC(=O)OC)c(Br)c3)c2n1 [Example 23, 2-Butoxy-8-hydroxy-9-{3-bromo-4-(methoxycarbonylmethoxy)benzyl}adenine] | 0.1 |  |  |
| Nc1nc(CC(=O)OCCF)nc2c1nc(O)n2Cc1ccccc1 [Example 109, 9-Benzyl-2-(2-fluoroethoxycarbonyl)methyl-8-hydroxyadenine] | 0.03 | 0 |  |
| CCCCOc1nc(N)c2nc(O)n(Cc3ccc(C(=O)OC)c(C(=O)OC)c3)c2n1 [Example 90, 2-Butoxy-9-(3,4-dimethoxycarbonylbenzyl)-8-hydroxyadenine] | 0.0003 | 3 |  |
| Nc1nc(CCC(=O)O)nc2c1nc(O)n2Cc1ccc(CC(=O)O)cc1 [compound 18, 2-(2-Carboxylethyl)-9-(4-carboxylmethylbenzyl)-8-hydroxyadenine, reference compound] | 3 |  |  |
| Nc1nc(SCc2ccc(C(=O)O)cc2)nc2c1nc(O)n2Cc1ccccc1 [compound 35, 9-Benzyl-8-hydroxy-2-[(4-carboxybenzyl)thio]adenine, reference compound] | 1 |  |  |
| Nc1nc(OCC(=O)O)nc2c1nc(O)n2Cc1ccccc1 [compound 16, 9-Benzyl-8-hydroxy-2-calboxylmethoxyadenine, reference compound] | 1 |  |  |
| Nc1nc(CCC(=O)O)nc2c1nc(O)n2Cc1ccccc1 [Comparative example 15, 9-Benzyl-2-(2-carboxyethyl)-8-hydroxyadenine, reference compound] | 1 |  |  |
| COC(=O)Cc1cccc(CSc2nc(N)c3nc(O)n(Cc4ccccc4)c3n2)c1 [Example 105, 9-Benzyl-8-hydroxy-2-[(3-methoxycarbonylmethylbenzyl)thio]adenine] | 0.3 | 1 |  |
| CCCCOc1nc(N)c2nc(O)n(Cc3cccc(CCC(=O)O)c3)c2n1 [compound 20, reference compound] | 0.03 |  |  |
| CCCCOc1nc(N)c2nc(O)n(Cc3ccc(CC(N)=O)cc3)c2n1 [Example 76, 2-Butoxy-8-hydroxy-9-(4-carbamoylmethylbenzyl)adenine] | 0.0001 |  |  |
| CCCCOc1nc(N)c2nc(O)n(Cc3ccc(C(C)C(=O)O)cc3)c2n1 (centres unmarked) [compound 31, 2-Butoxy-8-hydroxy-9-[4-(1-carboxyethyl)benzyl]adenine, reference compound] | 0.03 |  |  |
| CC(C)OC(=O)Cc1nc(N)c2nc(O)n(Cc3ccccc3)c2n1 [Example 108, 9-Benzyl-8-hydroxy-2-(isopropoxycarbonylmethyl)adenine] | 0.03 | 3 |  |
| CCCCOc1nc(N)c2nc(O)n(Cc3ccc(N4CCC(C(=O)O)CC4)nc3)c2n1 [compound 21, reference compound] | 0.003 |  |  |
| CCCCOc1nc(N)c2nc(O)n(Cc3ccc(C(=O)O)c(C(=O)O)c3)c2n1 [compound 23, 2-Butoxy-9-(3,4-dicarboxylbenzyl)-8-hydroxyadenine, reference compound] | 0.1 |  |  |
| COCCOc1nc(N)c2nc(O)n(Cc3cccc(CC(=O)O)c3)c2n1 [Comparative example 27, 9-(3-Carboxymethylbenzyl)-8-hydroxy-2-(2-methoxyethoxy)adenine, reference compound] | 0.3 |  |  |
| COC(=O)Cc1ccc(CSc2nc(N)c3nc(O)n(Cc4ccccc4)c3n2)cc1 [Example 106, 9-Benzyl-8-hydroxy-2-[(4-methoxycarbonylmethylbenzyl)thio]adenine] | 0.1 | 3 |  |
| COC(=O)CCc1nc(N)c2nc(O)n(Cc3ccc(CC(=O)OC)cc3)c2n1 [Example 67, 8-Hydroxy-2-(2-methoxycarbonylethyl)-9-(4-methoxycarbonylmethylbenzyl)adenine] | 0.001 | 0 |  |
| CCCCOc1nc(N)c2nc(O)n(Cc3ccc(C(N)=O)nc3)c2n1 [Example 83, 2-Butoxy-9-{(6-carbamoyl-3-pyridyl)methyl}-8-hydroxyadenine] | 0.0003 |  |  |
| CCCCOc1nc(N)c2nc(O)n(Cc3ccc(OC(O)CCC(=O)OC)cc3)c2n1 (centres unmarked) [Example 95, 2-Butoxy-9-{4-(1-hydroxy-3-methoxycarbonylpropoxy)benzyl}-8-hydroxyadenine] | 0.001 | 4 |  |
| CCCCOC(=O)Cc1nc(N)c2nc(O)n(Cc3ccccc3)c2n1 [Example 107, 9-Benzyl-2-butoxycarbonylmethyl-8-hydroxyadenine] | 0.1 | 3 |  |

| Structure (SMILES) | minimal effective concentration [1] [µM] | Residual rate [2] [%] | Minimum effective concentration (interferon inducing activity) [1] [nM] |
| --- | --- | --- | --- |
| CCCCOc1nc(N)c2nc(O)n(Cc3ccc(CC(=O)N(C)C)cc3)c2n1 [Example 78, 2-Butoxy-8-hydroxy-9-(4-dimethylcarbamoylmethylbenzyl)adenine] | 3e-05 |  |  |
| CCCCOc1nc(N)c2nc(O)n(Cc3ccc(C(=O)OCc4ccccc4)cc3)c2n1 [Example 14, 2-Butoxy-8-hydroxy-9-(4-benzyloxycarbonylbenzyl)adenine] |  | 22 |  |
| CCOC(=O)CCCCSc1nc(N)c2nc(O)n(Cc3ccccc3)c2n1 [Example 57, 9-Benzyl-2-(4-ethoxycarbonylbutyl)thio-8-hydroxyadenine] |  | 3 |  |
| CCCCOc1nc(N)c2nc(O)n(Cc3ccc(CC(=O)OCCN(C)C)cc3)c2n1.Cl [Example 72, 2-Butoxy-8-hydroxy-9-{4-(2-dimethylaminoethoxycarbonyl)methylbenzyl}adenine hydrochloride] |  | 4 |  |
| CCCCOc1nc(N)c2nc(O)n(Cc3ccc(C(=O)SC)nc3)c2n1 [Example 82, 2-Butoxy-8-hydroxy-9-{(6-S-methylthiocarbonyl-3-pyridyl)methyl}adenine] |  | 2 | 100 |
| COC(=O)CCc1nc(N)c2nc(O)n(Cc3ccc(C)nc3)c2n1 [Example 66, 8-Hydroxy-2-methoxycarbonylethyl-9-{(6-methyl-3-pyridyl)methyl}adenine] |  | 0 | 1 |
| COC(=O)c1ccc(CSc2nc(N)c3nc(O)n(Cc4ccccc4)c3n2)cc1 [Example 104, 9-Benzyl-8-hydroxy-2-[(4-methoxycarbonylbenzyl)thio]adenine] | 0.1 |  |  |
| CCCCOc1nc(N)c2nc(O)n(Cc3ccc(C(C)C(=O)OC)cc3)c2n1 (centres unmarked) [Example 100, 2-Butoxy-8-hydroxy-9-[4-(1-methoxycarbonylethyl)benzyl]adenine] | 0.0003 | 1 |  |
| Nc1nc(SCc2cccc(CC(=O)O)c2)nc2c1nc(O)n2Cc1ccccc1 [compound 36, 9-Benzyl-8-hydroxy-2-[(3-carboxymethylbenzyl)thio]adenine, reference compound] | 3 |  |  |
| COCCOc1nc(N)c2[nH]c(=O)n(Cc3cccc(CC(=O)OC)c3)c2n1 [Example 96, 8-Hydroxy-9-(3-methoxycarbonylmethylbenzyl)-2-(2-methoxyethoxy)adenine] | 0.003 | 0 |  |
| Nc1nc(CC(=O)N2CCOCC2)nc2c1nc(O)n2Cc1ccccc1 [Example 110, 9-Benzyl-8-hydroxy-2-(morpholinocarbonylmethyl)adenine] | 0.1 |  |  |
| Nc1nc(SCc2cccc(C(=O)O)c2)nc2c1nc(O)n2Cc1ccccc1 [compound 34, 9-Benzyl-8-hydroxy-2-[(3-carboxybenzyl)thio]adenine, reference compound] | 0.3 |  |  |
| CCCCOc1nc(N)c2nc(O)n(Cc3ccc(SC4CCOC4=O)nc3)c2n1 (centres unmarked) [Example 93] |  |  | 3 |
| CCCCOc1nc(N)c2[nH]c(=O)n(Cc3cccc(CCC(=O)OC)c3)c2n1 [Example 84, 2-Butoxy-8-hydroxy-9-(3-methoxycarbonylethylbenzyl)adenine] | 0.01 | 1 |  |
| CCCCOc1nc(N)c2nc(O)n(Cc3ccc(CCC(=O)OCC)cc3)c2n1 [Example 86, 2-Butoxy-9-(4-ethoxycarbonylethylbenzyl)-8-hydroxyadenine] |  | 18 |  |
| CCCCOc1nc(N)c2nc(O)n(Cc3ccc(CC(=O)O)o3)c2n1 [compound 19, 2-Butoxy-9-(5-carboxylmethylfurfuryl)-8-hydroxyadenine, reference compound] | 0.03 |  |  |
| Nc1nc(SCc2ccc(CC(=O)O)cc2)nc2c1nc(O)n2Cc1ccccc1 [compound 37, 9-Benzyl-8-hydroxy-2-[(4-carboxymethylbenzyl)thio]adenine, reference compound] | 1 |  |  |
| Nc1nc(SCC(=O)N2CCOCC2)nc2c1nc(O)n2Cc1ccccc1 [Example 52, 9-Benzyl-8-hydroxy-2-(morphorinocarbonylmethyl)thioadenine] |  | 24 |  |
| CSC(=O)CCc1nc(N)c2nc(O)n(Cc3ccccc3)c2n1 [Example 63] |  | 0 | 100 |
| Cc1ccc(Cn2c(O)nc3c(N)nc(CCC(=O)O)nc32)cn1 [compound 17, reference compound] | 0.3 |  |  |
| CCCCOc1nc(N)c2nc(O)n(Cc3ccc(OC4CCOC4=O)cc3)c2n1 (centres unmarked) [Example 94, 2-Butoxy-9-{4-(γ-butyrolactonyloxy)benzyl}-8-hydroxyadenine] |  | 2 |  |
| CCCCOc1nc(N)c2nc(O)n(Cc3ccc(CC(=O)NC)cc3)c2n1 [Example 77, 2-Butoxy-8-hydroxy-9-(4-methylcarbamoylmethylbenzyl)adenine] | 0.0003 |  |  |
